Data from patent US8349827B2, “Substituted dipyrido-pyrimido-diazepine and benzo-pyrido-pyrimido compounds” (ArQule, Inc., priority 2009, dated 2013).

What was measured:
KATO III = assay: MTS assay, KATO III cells; format: cell-based; settings: Homo sapiens, 72 hours
Procedure: (§1) Cells were maintained at 37° C., 5% CO2 in DMEM media supplemented with 1% fetal bovine serum, penicillin/streptomycin and fungizone (Invitrogen). Cells were seeded into 96-well tissue culture plates at 3000 per well and cultured at 37° C. for 18 hours. Test compounds were dissolved and diluted to 300× in DMSO then diluted 1:40 in DMEM. Cells were incubated with test compounds for 72 hours followed by incubation with tetrazolium compound (3-(4,5-dimethylthiazol-2-yl)-5-(3-carboxymethoxyphenyl)-2-(4-sulfophenyl)-2H-tetrazolium, inner salt; MTS) and the electron coupling reagent, phenazine methosulfate (PMS) for 4 hours. […] The ability of compounds to inhibit cell growth in this assay is correlated with the reduction of dehydrogenase enzyme activity found in metabolically active cells. The measurement of the absorbance of the formazan was assessed using an ENVISION™ (Perkin Elmer) microplate reader at 492 nm. The calculated IC50 value is the concentration of the test compound that causes a 50% decrease in the absorbance.

NCI-H1299 = assay: MTS assay, NCI-H1299 cells; format: cell-based; settings: Homo sapiens, 72 hours
Procedure: as §1

ABL T315I = ABL T315I (Homo sapiens, UniProt P00519, T315I); assay: ABL Kinase Activity Assay (Elisa), ABL T315I; format: biochemical; settings: ATP 100 μM, read-out: Abl(T315I) Enzymetic assay (Elisa) % inhibition
Procedure: (§2) ABL Kinase Activity Assay
(§3) The disclosed compounds were assayed for their ability to inhibit the activity of ABL kinase. Nunc Maxisorb plates were coated with streptavidin by overnight incubation with 100 μL per well of 1 μg/ml streptavidin in DPBS. Prior to the experiment, the plates were washed with TBST (3×200 μL) and blocked for at least 3 hours by adding 150 μL of 5% BSA/TBST. The plates were washed with TBST (3×200 μL/well) and left dry immediately before the capture step.
(§4) The disclosed test compounds and controls (Gleevec) were prepared using the following assay buffer@10× desired final concentration (50 mM Tris pH 7.0, 0.02 mg/ml BSA, 10 mM MgCl2, 0.1 mM Na3VO4, 1 mM EGTA, 0.01% NP-40, 1 mM DTT in 10% glycerol/water). In a reaction plate, 5 μl test article (or control) and 30 μl ABL or ABL T315I (0.089 nM final concentration, in the above buffer) were added rapidly. The plate was incubated for 20 minutes. To the reaction plate was added ATP (100 μM final concentration) and AblTide (128 nM final concentration) in a volume of 15 μl. The plate was incubated at room temperature for one hour.
(§5) From the reaction plate, 40 μl was transferred to the streptavidin coated plate. The capture plate was incubated at room temperature for 30 minutes, then washed 3× with TBST. To the capture plate was added 100 μL/well of cell signaling anti-phospho tyrosine at a dilution of 1:3000 in 2% BSA/TBST. The plate was incubated for two hours at room temperature then washed 3× with TBST. To the capture plate was added 100 μL/well of alkaline phosphatase tagged goat anti mouse antibody at a dilution of 1:4000 in 2% BSA/TBST. The plate was incubated for one hour at room temperature then washed 3× with TBST.
(§6) The fluorescent readout was initiated by the addition of 100 μl/well of Attophos reagent (6 mg/10 mL). The reading was done on the Perkin Elmer Envision system.

ABL = ABL (Homo sapiens, UniProt P00519); assay: ABL Kinase Activity Assay (Elisa), ABL; format: biochemical; settings: ATP 100 μM, read-out: Abl Enzymetic assay (Elisa) % inhibition
Procedure: as §2, §3, §4, §5, §6

DLD-1 = assay: MTS assay, DLD-1 cells; format: cell-based; settings: Homo sapiens, 72 hours
Procedure: as §1

MDA-MB-231 = assay: MTS assay, MDA-MB-231 cells; format: cell-based; settings: Homo sapiens, 72 hours
Procedure: as §1

PACA-2 = assay: MTS assay, PACA-2 cells; format: cell-based; settings: 72 hours
Procedure: as §1

PC-3 = assay: MTS assay, PC-3 cells; format: cell-based; settings: Homo sapiens, 72 hours
Procedure: as §1

inhibition at 10 µM (ABL T315I) [%] | inhibition at 10 µM (ABL) [%] | Structure (SMILES) | inhibition at 10 µM (KATO III) [%] | inhibition at 10 µM (NCI-H1299) [%] | inhibition at 10 µM (DLD-1) [%] | inhibition at 10 µM (MDA-MB-231) [%] | inhibition at 10 µM (PACA-2) [%] | inhibition at 10 µM (PC-3) [%]
< 50 | < 50 | Cc1cnc(CNc2ncc3c(n2)-c2cccnc2Nc2cnccc2-3)cn1 [Example 6, N-[(5-methylpyrazin-2-yl)methyl]-9H-dipyrido[2,3-b:4′,3′-f]pyrimido[4,5-d]azepin-2-amine] | < 50 | < 50 | – | – | – | –
80 to 100 | 80 to 100 | Fc1ccc(CNc2ncc3c(n2)-c2cccnc2Nc2cnccc2-3)cc1Cl [Example 9, N-(3-chloro-4-fluorobenzyl)-9H-dipyrido[2,3-b:4′,3′-f]pyrimido[4,5-d]azepin-2-amine] | 50 to 79 | < 50 | 50 to 79 | < 50 | < 50 | –
80 to 100 | 80 to 100 | c1ccc(CNc2ncc3c(n2)-c2cccnc2Nc2cnccc2-3)cc1 [Example 12, N-benzyl-9H-dipyrido[2,3-b:4′,3′-f]pyrimido[4,5-d]azepin-2-amine] | < 50 | < 50 | < 50 | < 50 | – | –
80 to 100 | 80 to 100 | Cc1ccc(CCNc2ncc3c(n2)-c2cccnc2Nc2cnccc2-3)cc1 [Example 16, N-[2-(4-methylphenyl)ethyl]-9H-dipyrido[2,3-b:4′,3′-f]pyrimido[4,5-d]azepin-2-amine] | 50 to 79 | < 50 | < 50 | < 50 | < 50 | –
80 to 100 | 80 to 100 | Fc1ccc(CCNc2ncc3c(n2)-c2cccnc2Nc2cnccc2-3)cc1 [Example 19, N-[2-(4-fluorophenyl)ethyl]-9H-dipyrido[2,3-b:4′,3′-f]pyrimido[4,5-d]azepin-2-amine] | < 50 | < 50 | < 50 | < 50 | – | –
80 to 100 | 80 to 100 | Fc1ccccc1CNc1ncc2c(n1)-c1cccnc1Nc1cnccc1-2 [Example 20, N-(2-fluorobenzyl)-9H-dipyrido[2,3-b:4′,3′-f]pyrimido[4,5-d]azepin-2-amine] | < 50 | < 50 | < 50 | < 50 | < 50 | –
80 to 100 | 80 to 100 | c1ccc(CCNc2ncc3c(n2)-c2cccnc2Nc2cnccc2-3)cc1 [Example 28, N-(2-phenylethyl)-9H-dipyrido[2,3-b:4′,3′-f]pyrimido[4,5-d]azepin-2-amine] | 50 to 79 | – | < 50 | < 50 | – | –
80 to 100 | 80 to 100 | Clc1cccc(CCNc2ncc3c(n2)-c2cccnc2Nc2cnccc2-3)c1 [Example 29, N-[2-(3-chlorophenyl)ethyl]-9H-dipyrido[2,3-b:4′,3′-f]pyrimido[4,5-d]azepin-2-amine] | 80 to 100 | – | < 50 | < 50 | < 50 | –
80 to 100 | 80 to 100 | FC(F)(F)c1cccc(CNc2ncc3c(n2)-c2cccnc2Nc2cnccc2-3)c1 [Example 30, N-[3-(trifluoromethyl)benzyl]-9H-dipyrido[2,3-b:4′,3′-f]pyrimido[4,5-d]azepin-2-amine] | 80 to 100 | < 50 | 50 to 79 | – | < 50 | –
80 to 100 | 80 to 100 | Clc1ccc(CCNc2ncc3c(n2)-c2cccnc2Nc2cnccc2-3)cc1 [Example 31, N-[2-(4-chlorophenyl)ethyl]-9H-dipyrido[2,3-b:4′,3′-f]pyrimido[4,5-d]azepin-2-amine] | 80 to 100 | < 50 | 50 to 79 | – | < 50 | –
80 to 100 | 80 to 100 | COc1cccc(CNc2ncc3c(n2)-c2cccnc2Nc2cnccc2-3)c1 [Example 32, N-(3-methoxybenzyl)-9H-dipyrido[2,3-b:4′,3′-f]pyrimido[4,5-d]azepin-2-amine] | < 50 | 50 to 79 | 50 to 79 | < 50 | < 50 | –
80 to 100 | 50 to 79 | COc1cc(CNc2ncc3c(n2)-c2cccnc2Nc2cnccc2-3)cc(OC)c1 [Example 36, N-(3,5-dimethoxybenzyl)-9H-dipyrido[2,3-b:4′,3′-f]pyrimido[4,5-d]azepin-2-amine] | < 50 | < 50 | < 50 | – | < 50 | –
– | 50 to 79 | c1cnc2c(c1)-c1nc(NCCCN3CCCC3)ncc1-c1ccncc1N2 [Example 37, N-(3-pyrrolidin-1-ylpropyl)-9H-dipyrido[2,3-b:4′,3′-f]pyrimido[4,5-d]azepin-2-amine] | – | < 50 | – | < 50 | < 50 | –
80 to 100 | 80 to 100 | Cc1cccc(CCNc2ncc3c(n2)-c2cccnc2Nc2cnccc2-3)c1 [Example 41, N-[2-(3-methylphenyl)ethyl]-9H-dipyrido[2,3-b:4′,3′-f]pyrimido[4,5-d]azepin-2-amine] | 50 to 79 | < 50 | < 50 | < 50 | < 50 | –
80 to 100 | 80 to 100 | Fc1ccccc1CCNc1ncc2c(n1)-c1cccnc1Nc1cnccc1-2 [Example 43, N-[2-(2-fluorophenyl)ethyl]-9H-dipyrido[2,3-b:4′,3′-f]pyrimido[4,5-d]azepin-2-amine] | 50 to 79 | < 50 | < 50 | – | < 50 | –
– | < 50 | CCN(CC)CCCNc1ncc2c(n1)-c1cccnc1Nc1cnccc1-2 [Example 44, N′-9H-dipyrido[2,3-b:4′,3′-f]pyrimido[4,5-d]azepin-2-yl-N,N-diethylpropane-1,3-diamine] | 80 to 100 | < 50 | < 50 | < 50 | < 50 | –
80 to 100 | 80 to 100 | COc1ccc(CNc2ncc3c(n2)-c2cccnc2Nc2cnccc2-3)cc1OC [Example 47, N-(3,4-dimethoxybenzyl)-9H-dipyrido[2,3-b:4′,3′-f]pyrimido[4,5-d]azepin-2-amine] | < 50 | 50 to 79 | 50 to 79 | < 50 | < 50 | –
– | – | Clc1cccc(CNc2ncc3c(n2)-c2cccnc2Nc2ccccc2-3)c1 [Example 61, N-(3-chlorobenzyl)-9H-pyrido[2,3-b]pyrimido[4,5-d][1]benzazepin-2-amine] | < 50 | < 50 | < 50 | < 50 | – | < 50
– | – | OCCc1cccc(Nc2ncc3c(n2)-c2cccnc2Nc2ccccc2-3)c1 [Example 67, 2-[3-(9H-pyrido[2,3-b]pyrimido[4,5-d][1]benzazepin-2-ylamino)phenyl]ethanol] | 50 to 79 | 50 to 79 | < 50 | < 50 | 80 to 100 | –
